Data: patent EP3628659A1, “SELENOESTER-CONTAINING COMPOUNDS FOR USE IN THE TREATMENT OF MICROBIAL INFECTIONS OR COLORECTAL CANCER” (Consejo Superior De Investigaciones Científicas, priority 2018, dated 2020)
Where two headings read alike, the source gives them in different places.

Assays:
ABCB1 efflux pump = target: T1, ABCB1 efflux pump (Homo sapiens, UniProt P08183); assay: Rhodamine 123 assay of inhibition of MDR efflux pumps (flow cytometry); assay type: cell-based; conditions: Quotient = 100 × FARcompound/FARverapamil, verapamil 20 µM, Colo 320 vs Colo 205; for Inhibition of efflux pumps At 2 µM concentration: compound 2 µM; for Inhibition of efflux pumps At 20 µM concentration: compound 20 µM
T1 construct: The colonic adenocarcinoma cells (the doxorubicin-sensitive Colo 205 and the multidrug resistant Colo 320); host or cells: Colo 320/MDR-LRP (multidrug resistant), with Colo 205 (ATCC-CCL-222) as the sensitive parental comparator
T1 sequence (P08183 whole entry): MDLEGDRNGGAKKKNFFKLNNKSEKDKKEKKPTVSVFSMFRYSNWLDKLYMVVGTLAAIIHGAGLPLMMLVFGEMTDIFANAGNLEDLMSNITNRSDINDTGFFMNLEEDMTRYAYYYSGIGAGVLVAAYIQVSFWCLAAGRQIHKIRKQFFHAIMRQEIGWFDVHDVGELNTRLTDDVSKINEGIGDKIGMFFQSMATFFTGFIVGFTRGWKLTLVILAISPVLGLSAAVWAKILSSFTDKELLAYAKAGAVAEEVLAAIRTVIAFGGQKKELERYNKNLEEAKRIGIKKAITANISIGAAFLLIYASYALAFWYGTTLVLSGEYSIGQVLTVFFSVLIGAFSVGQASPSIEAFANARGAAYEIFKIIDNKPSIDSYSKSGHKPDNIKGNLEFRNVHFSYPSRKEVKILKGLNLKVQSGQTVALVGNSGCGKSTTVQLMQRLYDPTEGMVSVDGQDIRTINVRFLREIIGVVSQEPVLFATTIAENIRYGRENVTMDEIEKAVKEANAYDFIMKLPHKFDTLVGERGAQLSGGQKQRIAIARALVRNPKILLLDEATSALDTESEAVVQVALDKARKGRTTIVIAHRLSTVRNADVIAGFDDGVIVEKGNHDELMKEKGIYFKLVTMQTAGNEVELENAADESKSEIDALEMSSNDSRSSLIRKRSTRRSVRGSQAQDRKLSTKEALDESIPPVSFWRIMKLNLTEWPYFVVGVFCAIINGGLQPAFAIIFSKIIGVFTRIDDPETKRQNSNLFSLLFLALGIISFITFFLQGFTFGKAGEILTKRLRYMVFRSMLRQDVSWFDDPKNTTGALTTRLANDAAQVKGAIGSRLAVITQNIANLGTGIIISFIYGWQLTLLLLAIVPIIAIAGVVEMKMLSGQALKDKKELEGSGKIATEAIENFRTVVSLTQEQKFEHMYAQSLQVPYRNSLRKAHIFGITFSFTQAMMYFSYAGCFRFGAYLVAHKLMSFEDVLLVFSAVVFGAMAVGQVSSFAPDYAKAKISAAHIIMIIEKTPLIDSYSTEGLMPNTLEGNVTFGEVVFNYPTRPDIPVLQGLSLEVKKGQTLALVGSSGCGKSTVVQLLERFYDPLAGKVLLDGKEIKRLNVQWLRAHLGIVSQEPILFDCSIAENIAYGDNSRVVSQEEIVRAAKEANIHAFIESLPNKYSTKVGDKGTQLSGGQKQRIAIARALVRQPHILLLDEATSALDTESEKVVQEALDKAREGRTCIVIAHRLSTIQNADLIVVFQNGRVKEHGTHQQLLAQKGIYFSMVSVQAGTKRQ
Experimental: This method, described in Gajdács et al, 2017, Bioorg Med Chem Lett. 27(4): 797-802, is a fluorescence-based detection system which uses verapamil as reference inhibitor of the ABCB1 efflux pump. The colonic adenocarcinoma cells (the doxorubicin-sensitive Colo 205 and the multidrug resistant Colo 320) were adjusted to a density of 2×10^6/mL, re-suspended in serum-free RPMI 1640 medium and distributed in 0.5 mL aliquots into Eppendorf centrifuge tubes. Selenocompounds (1 and 10 µL from a stock solution of 1 mM, respectively) were added at different concentrations (2 µM and 20 µM final concentrations, respectively), and the samples were incubated for 10 min at room temperature. Next, 10 µL (5.2 µM final concentration) of rhodamine 123 was added to the samples and the cells were incubated for 20 minutes at 37°C, washed twice with phosphate buffered saline (PBS) and re-suspended in 1 mL PBS for analysis. The fluorescence intensity of the cell population was measured with a Partec CyFlow flow cytometer (Partec, Munster, Germany). Verapamil was used as a positive control at 20 µM final concentration in the rhodamine 123 exclusion experiments. The mean fluorescence intensity (%) was calculated for the treated multidrug resistance (MRD) Colo 320 and sensitive Colo 205 cell lines as compared to the untreated cells. The fluorescence activity ratio (FAR) was calculated based on the following equation which relates the measured fluorescence values: FAR = (MDRtreated /MDRcontrol)/(parentaltreated /parentalcontrol); Quotient = 100 × (FARcompound/FARverapamil) [formula]

[1] = test system: Staphylococcus aureus 25923 ATCC; assay: MIC determination (CLSI), S. aureus 25923 ATCC; assay type: cell-based; conditions: MIC class
Experimental: (§1) The effects exerted by different concentrations of the compounds on bacterial growth in Staphylococcus aureus 25923 ATCC, Staphylococcus aureus multidrug resistant 272123 clinical isolate (MRSA), Escherichia coli AG100 or Escherichia coli AG100 A were tested in 96-well plates. The MIC of selenocompounds was determined according to Clinical and Laboratory Standard Institute (CLSI) guidelines. The solvent used (DMSO) had no antibacterial effect. Alternatively, the MICs of oxacillin of the compounds in MRSA HEMSA 5 were determined by a broth microdilution method in cation-adjusted Mueller-Hinton Broth (MHB II) according to the recommendations of the CLSI. Results were recorded after a 20- or 24-hour incubation at 37°C.

[2] = test system: Staphylococcus aureus multidrug resistant 272123 clinical isolate (MRSA); assay type: cell-based; conditions: MIC class
Experimental: as §1

Escherichia coli AG100 A = assay: MIC determination (CLSI), E. coli AG100 A; assay type: cell-based; conditions: MIC class
Experimental: as §1

Saccharomyces cerevisiae = assay: Antifungal activity (optical density), Saccharomyces cerevisiae; assay type: cell-based
Experimental: (§2) The compounds were tested for their antifungal and nematicidal properties against the fungi Candida albicans and Saccharomyces cerevisiae, and against the nematode Steinernema feltiae.
Fungal cell densities were determined by measuring the optical density (OD) at 570 nm at 0 h (first measurement immediately after incubation), 4 h, and 24 h after incubation at 37 °C; and using a Universal Microplate Reader, EL800, Biotech Instruments, Inc. Highland Park, Winooski, VT, USA. Compounds were dissolved in 1% DMSO and were tested at final concentrations of 50, 100, 150, and 200 µM. Nutrient Sabouraud Dextrose (SD), and Yeast Peptone Dextrose (YPD) were used as media for C. albicans, and S. cerevisiae, respectively. Ketoconazole was used as the positive control for C. albicans and S. cerevisiae. The growth culture with medium for each organism was used as the negative control. The Solvent 1% DMSO stock was used as a solvent control. All experiments were carried out in triplicate and on three different occasions (n = 9).
(§3) For the three organisms considered (C. albicans, S. cerevisiae and S. feltiae), the inhibitory concentration 50% (IC50) is defined as the concentration that inhibits the viability of the respective organism to a 50% of the viability determined for the negative control.

Steinernema feltiae = assay: Nematicidal activity (viability count), Steinernema feltiae; assay type: in vivo; conditions: IC50 class, tested at 50, 100, 150 and 200 µM, viability at 24 h
Experimental: as §2
The soil nematodes S. feltiae were purchased from Sautter and Stepper GmbH (Ammerbuch, Germany) and stored at 4 °C in the dark. Before each experiment, fresh samples of nematodes were purchased and stored in the fridge upon arrival and used for a maximum of six days. To perform the assay, 200 mg of nematodes was reconstituted in 50 mL of phosphate buffered saline (PBS) (pH = 7.4) to form a homogenous suspension to revive the nematodes. Afterwards, the individual suspensions were allowed to rest at room temperature. The sedimentation was avoided with occasional shaking in moderate light and at room temperature (25 °C) for 30 min. Viability of the nematodes was determined by counting the live and dead nematodes under a light microscope (TR 200, VWR International, Leuven, Belgium) at four-fold magnification. An initial viability value of more than 90 percent was considered necessary to perform the experiments.
Sample solutions were added into the wells of a 96-well plate to achieve at final concentrations of 50,100, 150, and 200 µM. Afterwards, 10 µL of nematode suspension was added to each well and the final volume in each well was adjusted to 100 µL with phosphate buffered saline (PBS) (pH = 7.4). PBS was used in the negative control and ethanol in the positive control. Viability was determined at 0 h and 24 h by counting the live and dead nematodes, whereby 50 µL of lukewarm water (40 °C) were added to each well to stimulate the nematodes for the 24 h reading. Each experiment was performed independently in triplicate and on three different occasions (n = 9).
as §3

[3] = read-out: Antifungal activity Saccharomyces cerevisiae, IC50 class, tested at 50, 100, 150 and 200 µM, OD 570 nm, 37 °C, read-out: Antifungal activity Streptomyces cerevisiae

Row | Structure (SMILES) | Inhibition of efflux pumps At 2 µM concentration (ABCB1 efflux pump) | Inhibition of efflux pumps At 20 µM concentration (ABCB1 efflux pump) | Antibacterial activity Against S. aureus 25923 ATCC [1] | Antibacterial activity Against S. aureus MRSA 272123 [2] | Antibacterial activity Against E. coli AG100 A (Escherichia coli AG100 A) | IC50 (Saccharomyces cerevisiae; [3]) | IC50 (Steinernema feltiae) | IC50 (Saccharomyces cerevisiae; read-out: Antifungal activity Saccharomyces cerevisiae)
1 | N#CC[Se]C(=O)c1ccc(C(=O)[Se]CC#N)cc1 [Compound 18, Se,Se-bis-(cyanomethyl) benzene-1,4-bis-(carboselenoate)] | ** (Potent inhibitors of MDR efflux pumps: 100% ≤ Quotient < 200% (from 1- to 2-fold more potent than reference verapamil)) | ** (Potent inhibitors of MDR efflux pumps: 100% ≤ Quotient < 200% (from 1- to 2-fold more potent than reference verapamil)) | *** (Potent antibacterial compounds: 1 µM < MIC ≤ 10 µM) | ** (Moderate antibacterial compounds: 10 µM < MIC ≤ 50 µM) | ** (Moderate antibacterial compounds: 10 µM < MIC ≤ 50 µM) | > 100 µM | 10 to 50 µM | –
2 | N#CC[Se]C(=O)c1cccc(C(=O)[Se]CC#N)c1 [Compound 19, Se,Se-bis-(cyanomethyl)benzene-1,3-bis-(carboselenoate)] | ** (Potent inhibitors of MDR efflux pumps: 100% ≤ Quotient < 200% (from 1- to 2-fold more potent than reference verapamil)) | ** (Potent inhibitors of MDR efflux pumps: 100% ≤ Quotient < 200% (from 1- to 2-fold more potent than reference verapamil)) | *** (Potent antibacterial compounds: 1 µM < MIC ≤ 10 µM) | ** (Moderate antibacterial compounds: 10 µM < MIC ≤ 50 µM) | NA (Not antibacterial compounds: MIC ≥ 100 µM) | – | 10 to 50 µM | 10 to 50 µM
3 | N#CC[Se]C(=O)c1cc(C(=O)[Se]CC#N)cc(C(=O)[Se]CC#N)c1 [Compound 20, Se,Se,Se-tris-(cyanomethyl) benzene-1,3,5-tris-(carboxyselenoate)] | ** (Potent inhibitors of MDR efflux pumps: 100% ≤ Quotient < 200% (from 1- to 2-fold more potent than reference verapamil)) | ** (Potent inhibitors of MDR efflux pumps: 100% ≤ Quotient < 200% (from 1- to 2-fold more potent than reference verapamil)) | – | – | NA (Not antibacterial compounds: MIC ≥ 100 µM) | 10 to 50 µM | > 100 µM | –
4 | CC(=O)C[Se]C(=O)c1ccc(C(=O)[Se]CC(C)=O)cc1 [Compound 22, Se,Se-bis-(2-oxopropyl) benzene-1,4-bis-(carboselenoate)] | *** (Very potent inhibitors of MDR efflux pumps: Quotient ≥ 200% (≥ 2-fold more potent than reference verapamil)) | *** (Very potent inhibitors of MDR efflux pumps: Quotient ≥ 200% (≥ 2-fold more potent than reference verapamil)) | **** (Very potent antibacterial compounds: MIC ≤ 1 µM) | *** (Potent antibacterial compounds: 1 µM < MIC ≤ 10 µM) | ** (Moderate antibacterial compounds: 10 µM < MIC ≤ 50 µM) | 50 to 100 µM | 50 to 100 µM | –
5 | CC(=O)C[Se]C(=O)c1cccc(C(=O)[Se]CC(C)=O)c1 [Compound 23, Se,Se-bis-(2-oxopropyl) benzene-1,3-bis-(carboselenoate)] | *** (Very potent inhibitors of MDR efflux pumps: Quotient ≥ 200% (≥ 2-fold more potent than reference verapamil)) | *** (Very potent inhibitors of MDR efflux pumps: Quotient ≥ 200% (≥ 2-fold more potent than reference verapamil)) | **** (Very potent antibacterial compounds: MIC ≤ 1 µM) | *** (Potent antibacterial compounds: 1 µM < MIC ≤ 10 µM) | ** (Moderate antibacterial compounds: 10 µM < MIC ≤ 50 µM) | > 100 µM | > 100 µM | –
6 | CC(=O)C[Se]C(=O)c1cc(C(=O)[Se]CC(C)=O)cc(C(=O)[Se]CC(C)=O)c1 [Compound 24, Se,Se,Se-tris-(2-oxopropyl) benzene-1,3,5-tris-(carboxyselenoate)] | *** (Very potent inhibitors of MDR efflux pumps: Quotient ≥ 200% (≥ 2-fold more potent than reference verapamil)) | *** (Very potent inhibitors of MDR efflux pumps: Quotient ≥ 200% (≥ 2-fold more potent than reference verapamil)) | **** (Very potent antibacterial compounds: MIC ≤ 1 µM) | **** (Very potent antibacterial compounds: MIC ≤ 1 µM) | ** (Moderate antibacterial compounds: 10 µM < MIC ≤ 50 µM) | > 100 µM | > 100 µM | –
